Data as given in patent US10494384B2, “Urea peptoid boric acid compound, pharmaceutical composition thereof, preparation method therefor, and uses thereof” (Peking University, priority 2015, dated 2019).

Legend:
[1] = system: Hela, human cervical carcinoma; experiment: preliminary anti-tumor screening in vitro, MTT method; type: cell-based; settings: read-out: inhibition rates (%) Hela
Experimental: (§1) The test methods used in this test example are routine methods for anti-tumor activities test in pharmaceutical area, for example, referring to the following reference: (J. Immunol Method, 1983, 65, 55).
(§2) Test models: A: MTT method (Hela, human cervical carcinoma); B: SRB method (BGC-823, […]); C: SRB method (MCF-7, breast cancer); D: SRB method (A549, human lung cancer); E: SRB method (PC3M1E8, prostate cancer).
(§3) Inhibition rates of the compounds were measured under concentrations of 0.1 μM, 1 μM or 10 μM.

A549, human lung cancer = experiment: preliminary anti-tumor screening in vitro, SRB method; type: cell-based; settings: read-out: inhibition rates (%) A549
Experimental: as §1, §2, §3

BGC-823, liver cancer = experiment: as above; type: cell-based; settings: Homo sapiens, read-out: inhibition rates (%) BGC-823
Experimental: as §1, §2, §3

MCF-7, breast cancer = experiment: as above; type: cell-based; settings: Homo sapiens, read-out: inhibition rates (%) MCF-7; for inhibition at 0.1 µM: MCF7, 0.1 μM; for inhibition at 1 µM: MCF7, 1 μM; for inhibition at 10 µM: MCF7, 10 μM
Experimental: as §1, §2, §3

[2] = biological target: T1, 20S proteasome extracted from rat liver (T-L) (Rattus norvegicus, UniProt P40112+Q9JHW0); experiment: inhibition of 20S proteasome, T-L activity (fluorescent peptide); type: biochemical; settings: rat liver 20S proteasome, 37° C., 1 h, read-out: inhibition rates (%) T-L
T1 construct: 20S proteasome extracted from rat liver; from tissue; host or cells: rat liver
Experimental: (§4) 1 μg of 20S proteasome extracted from rat liver was incubated with a 100 μL solution containing various concentrations of the present compounds, 50 μM fluorescent peptides and 20 mM Tris-HCl at 37° C. for 1 h, respectively. […] 0.1% DMSO was used as a solvent control. Compared with the fluorescence of solvent control, an inhibition rate or IC50 value was calculated.

[3] = biological target: T2, 20S proteasome extracted from rat liver (CT-L) (Rattus norvegicus, UniProt P18421+P28075); experiment: inhibition of 20S proteasome, CT-L activity (fluorescent peptide); type: biochemical; settings: rat liver 20S proteasome, 37° C., 1 h, read-out: inhibition rates (%) CT-L
T2 construct: 20S proteasome extracted from rat liver; from tissue; host or cells: rat liver
Experimental: as §4

[4] = biological target: T3, 20S proteasome extracted from rat liver (PGPH) (Rattus norvegicus, UniProt P28073+Q9JHW0); experiment: inhibition of 20S proteasome, PGPH activity (fluorescent peptide); type: biochemical; settings: rat liver 20S proteasome, 37° C., 1 h, read-out: inhibition rates (%) PGPH
T3 construct: 20S proteasome extracted from rat liver; from tissue; host or cells: rat liver
Experimental: as §4

inhibition at 0.2 µM [2] [%] | inhibition at 2 µM [2] [%] | inhibition at 20 µM [2] [%] | inhibition at 0.2 µM [3] [%] | inhibition at 2 µM [3] [%] | inhibition at 20 µM [3] [%] | inhibition at 0.2 µM [4] [%] | inhibition at 2 µM [4] [%] | Compound | inhibition at 0.1 µM [1] [%] | inhibition at 1 µM [1] [%] | inhibition at 10 µM [1] [%] | inhibition at 0.1 µM (A549, human lung cancer) [%] | inhibition at 1 µM (A549, human lung cancer) [%] | inhibition at 10 µM (A549, human lung cancer) [%] | inhibition at 0.1 µM (BGC-823, liver cancer) [%] | inhibition at 1 µM (BGC-823, liver cancer) [%] | inhibition at 10 µM (BGC-823, liver cancer) [%] | inhibition at 0.1 µM (MCF-7, breast cancer) [%] | inhibition at 1 µM (MCF-7, breast cancer) [%] | inhibition at 10 µM (MCF-7, breast cancer) [%] | also measured
-3.11 | 13.8 | 49.4 | 45.4 | 91.3 | 95.4 | 5.28 | 53.4 | CC(C)C[C@H](NC(=O)N[C@@H](Cc1ccccc1)C(=O)N[C@@H](CC(C)C)C(=O)Nc1cnccn1)B1OC(C)(C)C(C)(C)O1 [Example 13, N-L-leucine borate pinacol ester-N′-(pyrazin-2-ylcarbamoyl)-L-leucyl-L-phenylalanine-urea] | 7.02 | 20.2 | 37.7 | -9.11 | 23.5 | 50.5 | 3.66 | 17.8 | 40 | -3.69 | 8.39 | 20 | inhibition at 20 µM [4]: 96.8%
-2.89 | 12.3 | 62.2 | -14.6 | 86.6 | 94.5 | -14.4 | -2.93 | CC(C)C[C@H](NC(=O)[C@H](Cc1ccccc1)NC(=O)Nc1cccc(OCc2ccccc2)c1)B(O)O [Example 16, N-L-phenylalanyl-L-leucine borate-N′-(3-benzyloxy-phenylamine)-urea] | 9.91 | 34.1 | 39.6 | 5 | 36.2 | 65 | 6.01 | 34 | 48.7 | 6.62 | 27.2 | 51.4 | inhibition at 20 µM [4]: 92.4%
-6.55 | 22.8 | 35.5 | 33.8 | 86.8 | 93.6 | 40.9 | 87.9 | COc1ccc(CNC(=O)[C@H](Cc2ccccc2)NC(=O)N[C@@H](CC(C)C)B(O)O)cc1 [Example 1, N-L-leucine borate-N′-(p-methoxy-benzylcarbamoyl)-L-phenylalanine-urea] | 8.67 | 28 | 38.5 | 1.44 | 35.3 | 50.2 | 7.79 | 14.9 | 32 | 1 | 7.46 | 22.9 | inhibition at 20 µM [4]: 96.6%
-0.748 | 47.2 | 90.5 | 49.5 | 91 | 94.2 | -13.7 | -20.5 | CC(C)C[C@H](NC(=O)[C@H](Cc1ccccc1)NC(=O)[C@H](Cc1ccccc1)NC(=O)Nc1cccc(OCc2ccccc2)c1)B(O)O [Example 23, N-L-phenylalanyl-L-phenylalanyl-L-leucine borate-N′-(3-benzyloxy-phenylamine)-urea] | 17.4 | 42.5 | 75.7 | 32.7 | 68.8 | 81.3 | 43.2 | 42.7 | 81.6 | 23.7 | 56 | 73 | inhibition at 20 µM [4]: -20.3%
16.9 | 18.5 | 35.9 | -20.8 | 1.91 | 68.6 | 7.38 | 40.8 | CC(C)C[C@H](NC(=O)N[C@@H](Cc1ccccc1)C(=O)NCC1CCCO1)B(O)O (stereo partly drawn) [Example 3, N-L-leucine borate-N′-(tetrahydrofuran-2-ylmethylcarbamoyl)-L-phenylalanine-urea] | 10.2 | 14.2 | 19.2 | 5.55 | 16.6 | 14.9 | 4.73 | -4.01 | 0.96 | 3.24 | 9.52 | 9.37 | inhibition at 20 µM [4]: 88.4%
-1.39 | 9.32 | 30.6 | 2.87 | 59.7 | 89.4 | 1.62 | 7.36 | COc1ccc(NC(=O)[C@H](Cc2ccccc2)NC(=O)N[C@@H](CC(C)C)B(O)O)cc1 [Example 8, N-L-leucine borate-N′-(p-methoxy-phenylcarbamoyl)-L-phenylalanine-urea] | 12.7 | 13.4 | 32.9 | 1.01 | 8.26 | 39.2 | 4.74 | 5.62 | 15.6 | 4.54 | 8.51 | 16.4 | inhibition at 20 µM [4]: 63.1%
-0.926 | 43.5 | 90.2 | 84.6 | 95.7 | 97.4 | -21.8 | -24.7 | CC(C)C[C@H](NC(=O)[C@H](Cc1ccccc1)NC(=O)N[C@@H](Cc1ccccc1)C(=O)Nc1cnccn1)B(O)O [Example 24, N-L-phenylalanyl-L-leucine borate-N′-(pyrazin-2-ylcarbamoyl)-L-phenylalanine-urea] | 24.7 | 45.3 | 48.6 | 29.5 | 61.5 | 70.2 | 36.3 | 45.6 | 51.1 | 19.7 | 33.3 | 45.1 | inhibition at 20 µM [4]: -24.2%
-3.95 | 28.3 | 53.1 | 62 | 89.7 | 93.3 | 10.1 | 7.17 | CC(C)C[C@H](NC(=O)CNC(=O)Nc1cc(Cl)ccc1Cl)B(O)O [Example 22, N-glycyl-L-leucine borate-N′-(2,5-dichloro-phenylamine)-urea] | 8.66 | 19.7 | 43.4 | 1.88 | 28.3 | 65.6 | 2.04 | 9.01 | 44.5 | 7.17 | 12.7 | 42.2 | inhibition at 20 µM [4]: 5.29%
